Test results from article PMC6368574, “Probing the Inhibition of Microtubule Affinity Regulating Kinase 4 by N-Substituted Acridones” (Scientific Reports, 2019).

Legend:
HEK293 cells = experiment: MTT cell viability assay, HEK293; type: cell-based; settings: Homo sapiens, Table S2
Procedure: (§1) Initially, all synthesized acridone derivatives were evaluated for their cytotoxicity potential on MCF-7, HepG2 and HEK293 cell lines by MTT assay. These synthesized acridone derivatives were screened in the concentration range of 0–200 µM, for 24 and 48 h. […] It was also interesting that in the studied […] concentration range these compounds don’t show considerable cytotoxicity towards HEK293 cell lines. […] Thus, compounds 5, 7b, 7d, 7f and 7h were taken for further cell based studies such as apoptosis and reactive oxygen species (ROS) production.
(§2) To study the effect of synthesized acridone derivatives on cell viability and proliferation, a standard MTT method was carried out. Cells were plated (8000–9000/well) in a 96-well plate and incubated overnight. On the next day, cells were treated with increasing concentrations (0.1–80 μM) of synthesized acridone derivatives in a final volume of 200 µl for 48 h at 37 °C in a humidified chamber. At the end of treatment time point, 20 µl of MTT solution (from 5 mg/ml stock solution in phosphate buffer saline, pH 7.4) was added to each well and incubated further for 4–5 h at 37 °C in the CO2 incubator. After stipulated time the supernatant was aspirated and the colored formazan crystal produced as a result of MTT reduction was dissolved in 100 µl of DMSO. The absorbance (A) of colored product was then measured at 570 nm on a multiplate ELISA reader (BioRad). The percentage of viable cells was calculated and used to estimate the IC50 (50% inhibitory concentration) values for each acridone derivative. For cell proliferation studies paclitaxel has been taken as positive control.

HepG2 cells = experiment: MTT cell viability assay, HepG2; type: cell-based; settings: Homo sapiens, Table S2
Procedure: as §1, §2

Structure (SMILES)	IC50 (HEK293 cells) [µM]	IC50 (HepG2 cells) [µM]
COc1ccc(CNC(=O)Cn2c3ccccc3c(=O)c3cc(C)ccc32)cc1 [Compound 7d, N-(4-methoxybenzyl)-2-(2-methyl-9-oxoacridin-10(9H)-yl)acetamide]	> 200	15.1
COc1ccccc1NC(=O)Cn1c2ccccc2c(=O)c2cc(C)ccc21 [Compound 7h, N-(2-methoxyphenyl)-2-(2-methyl-9-oxoacridin-10(9H)-yl)acetamide]	> 200	19
Cc1ccc(NC(=O)Cn2c3ccccc3c(=O)c3cc(C)ccc32)cc1 [Compound 7f, 2-(2-Methyl-9-oxoacridin-10(9H)-yl)-N-(p-tolyl)acetamide]	> 200	15.2
COC(=O)Cn1c2ccccc2c(=O)c2cc(C)ccc21 [Compound 5, Methyl 2-(2-methyl-9-oxoacridin-10(9H)-yl)acetate]	> 200	16.4
Cc1ccc2c(c1)c(=O)c1ccccc1n2CC(=O)NCc1ccccc1 [Compound 7b, N-benzyl-2-(2-methyl-9-oxoacridin-10(9H)-yl)acetamide]	> 200	13.6
